Columns and labels:
Type in all cases: in vivo
[1] = tested on: H-460 human non-small cell lung cancer; assay: H-460 human non-SCLC xenografts in nude mice, Experiment 3; settings: 28 days; for Tumor growth inhibition after 4 weeks (%): 5 μg/day s.c.; for Inhibition of H-460 lung tumor growth compared with reference peptide JMR-132: 5 μg/day vs JMR-132 10 μg/day
Experimental: Male nude mice were implanted s.c. with 3 mm^3 pieces of H-460 human non-SCLC tumor tissue on both flanks. When tumors had grown to a mean volume of approximately 90 mm^3, the mice were randomly assigned into 8 experimental groups with 8 to 10 animals in each group and received single daily injections for 28 days as follows: 1. Control (vehicle solution); 2. JMR-132 (10 μg/day s.c.); 3. Peptide 11123 (5 μg/day s.c.); 4. Peptide 11125 (5 μg/day s.c.); 5. Peptide 11307 (5 μg/day s.c.); 6. Peptide 11317 (5 μg/day s.c.); 7. Peptide 11473 (5 μg/day s.c.); 8. Peptide 11485 (5 μg/day s.c.). Tumor volumes were measured once a week. The experiment was ended on day 28 by sacrificing the mice under Isoflurane anesthesia. Resulting tumors were cleaned, weighed, and snap-frozen until further analyses. Statistical analyses of the measurement results were done by two-tailed t-test, p<0.05 being considered significant.

[2] = tested on: PC-3 human hormone-independent prostate cancer; assay: PC-3 human prostate cancer xenografts in nude mice, Experiment 3; settings: 2 μg/day s.c., 28 days
Experimental: (§1) Male nude mice were implanted s.c. with 3 mm^3 pieces of PC-3 human hormone-independent prostate cancer tissue on both flanks. When tumors reached a volume of approximately 50 mm^3, the mice were divided into 12 experimental groups with 8 to 10 animals in each group and received single daily injections for 28 days as follows: 1. Control (vehicle solution); 2. JMR-132 (10 μg/day s.c.); 3. Peptide 11113 (2 μg/day s.c.); 4. Peptide 11119 (2 μg/day s.c.); 5. Peptide 11209 (2 μg/day s.c.); 6. Peptide 11313 (2 μg/day s.c.); 7. Peptide 11408 (2 μg/day s.c.); 8. Peptide 11435 (2 μg/day s.c.); 9. Peptide 11457 (2 μg/day s.c.); 10. Peptide 11459 (2 μg/day s.c.); 11. Peptide 11469 (2 μg/day s.c.); 12. Peptide 11491 (2 μg/day s.c.).
(§2) Tumor volumes were measured once a week. The experiment was ended on day 28 by sacrificing the mice under Isoflurane anesthesia. Resulting tumors were cleaned, weighed, and snap-frozen until further analyses. Statistical analyses of the measurement results were done by two-tailed t-test, p<0.05 being considered significant.

[3] = tested on: H-460 human non-small cell lung cancer; assay: H-460 human non-SCLC xenografts in nude mice, Experiment 2; settings: 5 μg/day s.c.; for Tumor growth after 4 weeks (%): 28 days, means±S.E.; for Inhibition (%): after 4 weeks
Experimental: Male nude mice were implanted s.c. with 3 mm^3 pieces of H-460 human non-SCLC tumor tissue on both flanks. When tumors had grown to a mean volume of approximately 90 mm^3, the mice were randomly assigned into 12 experimental groups with 8 to 10 animals in each group and received single daily injections for 28 days as follows: 1. Control (vehicle solution); 2. JMR-132 (10 μg/day s.c.); 3. Peptide 11109 (5 μg/day s.c.); 4. Peptide 11113 (5 μg/day s.c.); 5. Peptide 11119 (5 μg/day s.c.); 6. Peptide 11209 (5 μg/day s.c.); 7. Peptide 11313 (5 μg/day s.c.); 8. Peptide 11408 (5 μg/day s.c.); 9. Peptide 11435 (5 μg/day s.c.); 10. Peptide 11459 (5 μg/day s.c.); 11. Peptide 11469 (5 μg/day s.c.); 12. Peptide 11491 (5 μg/day s.c.). Tumor volumes were measured once a week. The experiment was ended on day 28 by sacrificing the mice under Isoflurane anesthesia. Resulting tumors were cleaned, weighed, and snap-frozen until further analyses. Statistical analyses of the measurement results were done by two-tailed t-test, p<0.05 being considered significant. Data are presented as the means±S.E.

[4] = tested on: PC-3 human hormone-independent prostate cancer; assay: PC-3 human prostate cancer xenografts in nude mice, Experiment 4; settings: for Tumor growth after 28 days (%) / Tumor growth after 46 days (%) / Inhibition (%): 2 μg/day s.c.; for Inhibitory effect on PC-3 tumors compared with reference peptide JMR-132: 2 μg/day vs JMR-132 10 μg/day, after 46 days of treatment
Experimental: as §1, §2
All experimental details of Experiment 4 are the same as for Experiment 3, with the following difference. When tumors reached a volume of approximately 50 mm^3, the mice were divided into 11 experimental groups with 8 to 10 animals in each group and received single daily injections for 46 days as follows: 1. Control (vehicle solution); 2. JMR-132 (10 μg/day s.c.); 3. Peptide 11123 (2 μg/day s.c.); 4. Peptide 11125 (2 μg/day s.c.); 5. Peptide 11213 (2 μg/day s.c.); 6. Peptide 11433 (2 μg/day s.c.); 7. Peptide 11473 (2 μg/day s.c.); 8. Peptide 11485 (2 μg/day s.c.); 9. Peptide 11497 (2 μg/day s.c.); 10. Peptide 11499 (2 μg/day s.c.); 11. Peptide 11521 (2 μg/day s.c.). Tumor volumes were measured once a week. The experiment was ended on day 46 by sacrificing the mice under Isoflurane anesthesia. Resulting tumors were cleaned, weighed, and snap-frozen until further analyses. Statistical analyses of the measurement results were done by two-tailed t-test, p<0.05 being considered significant.

Row | Substance | Tumor growth inhibition after 4 weeks (%) [1] | Inhibition of H-460 lung tumor growth compared with reference peptide JMR-132 [1] | Tumor growth inhibition after 4 weeks (%) [2] | Tumor growth after 4 weeks (%) [3] | Inhibition (%) [3] | Tumor growth after 28 days (%) [4] | Tumor growth after 46 days (%) [4] | Inhibition (%) ([4]; after 28 days) | Inhibition (%) ([4]; after 46 days) | Inhibitory effect on PC-3 tumors compared with reference peptide JMR-132 [4]
1 | [(Ac-Ada)^0-Tyr^1, D-Arg^2, Cpa^6, Ala^8, Har^9, Tyr(Me)^10, His^11, Abu^15, His^20, Nle^27, D-Arg^28, Har^29-Ada^30]hGH-RH(1-29)NH2 [Peptide 11317] | 41.00% | more potently inhibited the growth of H-460 lung tumors than the reference peptide JMR-132 | – | – | – | – | – | – | – | –
2 | [(Ac-Ada-D-Phe)^0-Tyr^1, D-Arg^2, Cpa^6, Ala^8, Har^9, Tyr(Me)^10, His^11, Abu^15, His^20, Nle^27, D-Arg^28, Har^29]hGH-RH(1-29)NH2 [Peptide 11119] | – | – | 32.03% | 5254 ± 1524% | 33.44% | – | – | – | – | –
3 | [(Dca-Ada)^0-Tyr^1, D-Arg^2, (Phe(F)5)^6, Ala^8, Har^9, Tyr(Me)^10, His^11, Orn^12, Abu^15, His^20, Orn^21, Nle^27, D-Arg^28, Har^29]hGH-RH(1-29)NH2 [Peptide 11491] | – | – | 72.43% | 1926 ± 473% | 75.60% | – | – | – | – | –
4 | [(Ac-Amc)^0-Tyr^1, D-Arg^2, Cpa^6, (Me-Ala)^8, Har^9, Tyr(Me)^10, His^11, Abu^15, His^20, Nle^27, D-Arg^28, Har^29]hGH-RH(1-29)NH2 [Peptide 11408] | – | – | 63.61% | 3998 ± 1113% | 49.35% | – | – | – | – | –
5 | [Fer^0-Tyr^1, D-Arg^2, Cpa^6, Ala^8, Har^9, Tyr(Me)^10, His^11, Abu^15, His^20, Nle^27, D-Arg^28, Har^29]hGH-RH(1-29)NH2 [Peptide 11113] | – | – | 29.37% | 6790 ± 3340% | 13.98% | – | – | – | – | –
6 | [(Dca-Ada)^0-Tyr^1, D-Arg^2, Cpa^6, Ala^8, Har^9, Tyr(Me)^10, His^11, Abu^15, His^20, Nle^27, D-Arg^28, Har^29]hGH-RH(1-29)NH2 [Peptide 11123] | 35.74% | more potently inhibited the growth of H-460 lung tumors than the reference peptide JMR-132 | – | – | – | 786% | 1849% | 42.57% | 44.48% | –
7 | [(CH3—(CH2)10CO-Ada)^0-Tyr^1, D-Arg^2, Cpa^6, Ala^8, Har^9, Tyr(Me)^10, His^11, Orn^12, Abu^15, His^20, Orn^21, Nle^27, D-Arg^28, Har^29-Ada^30]hGH-RH(1-29)NH2 [Peptide 11485] | 9.04% | – | – | – | – | 794% | 1257% | 41.96% | 62.24% | had a more potent inhibitory effect than reference peptide JMR-132
8 | [(CH3—(CH2)10—CO-Ada)^0-Tyr^1, D-Arg^2, Cpa^6, Ala^8, Har^9, Tyr(Me)^10, His^11, Abu^15, His^20, Nle^27, D-Arg^28, Har^29]hGH-RH(1-29)NH2 [Peptide 11125] | 33.03% | more potently inhibited the growth of H-460 lung tumors than the reference peptide JMR-132 | – | – | – | 424% | 1009% | 68.97% | 69.69% | had a more potent inhibitory effect than reference peptide JMR-132
9 | [(Ac-Ada)^0-Tyr^1, D-Arg^2, Cpa^6, Ala^8, Har^9, Tyr(Me)^10, His^11, Orn^12, Abu^15, His^20, Orn^21, Nle^27, D-Arg^28, Har^29]hGH-RH(1-29)NH2 [Peptide 11435] | – | – | 75.11% | 4170 ± 2064% | 47.17% | – | – | – | – | –
10 | [(PhAc^0-Ada)-Tyr^1, D-Arg^2, Cpa^6, Ala^8, Har^9, Tyr(Me)^10, His^11, Orn^12, Abu^15, His^20, Orn^21, Nle^27, D-Arg^28, Har^29]hGH-RH(1-29)NH2 [Peptide 11459] | – | – | 53.60% | 2418 ± 923% | 69.36% | – | – | – | – | –
11 | [PhAc^0-Tyr^1, D-Arg^2, Cpa^6, Ala^8, Har^9, Tyr(Me)^10, His^11, Abu^15, His^20, Nle^27, D-Arg^28, Har^29-Apa^30]hGH-RH(1-29)NH2 [Peptide 11209] | – | – | 48.04% | 6377 ± 2477% | 19.21% | – | – | – | – | –
12 | [(Ac-Ada)^0-Tyr^1, D-Arg^2, Cpa^6, Ala^8, Har^9, Tyr(Me)^10, His^11, Orn^12, Abu^15, His^20, Orn^21, Nle^27, D-Arg^28, Har^29-Ada^30]hGH-RH(1-29)NH2 [Peptide 11469] | – | – | 78.07% | 4810 ± 1977% | 39.06% | – | – | – | – | –
13 | [(PhAc^0-Ada)-Tyr^1, D-Arg^2, Cpa^6, Ala^8, Har^9, Tyr(Me)^10, His^11, Orn^12, Abu^15, His^20, Orn^21, Nle^8, D-Arg^28, Har^29-Ada^30]hGH-RH(1-29)NH2 [Peptide 11473] | 54.64% | more potently inhibited the growth of H-460 lung tumors than the reference peptide JMR-132 | – | – | – | 442% | 1072% | 67.68% | 67.80% | had a more potent inhibitory effect than reference peptide JMR-132

— US9260504B2, “N- and C-terminal substituted antagonistic analogs of GH-RH” (University of Miami, priority 2008, dated 2016)
